Experimental data as given in patent US20240287463A1, “INDUCIBLE TISSUE CONSTRUCTS AND USES THEREOF” (Massachusetts Institute of Technology, priority 2020, published 2024).

Key:
HUVECs = assay: vascular network in HUVEC/iCasp9-HDF microfluidic devices after fibroblast removal (dextran perfusion); assay type: cell-based, human
Procedure: More specifically, the molds for the 2-channel microfluidic devices were constructed using stereolithography (Proto Labs). Polydimethylsiloxane (PDMS) was cured at a standard mixing ratio overnight at 60° C. in the mold, and individual devices were cut and plasma-bonded to glass slides. To enhance ECM bonding to PDMS, the surface inside the tissue chamber of the devices was functionalized with 0.01% poly-L-lysine and 1% glutaraldehyde following plasma-activation and washed overnight in DI water. On the day of seeding, devices were soaked in 70% ethanol (EtOH) and dried. Acupuncture needles (300 μm diameter) (Hwato) were blocked in 0.1% (w/v) bovine serum albumin (BSA) (Sigma) in phosphate buffer saline (PBS) for 45 minutes and inserted through the two needle guides. Devices with needles were UV-sterilized for 15 minutes. Once the needles were inserted, a fibrinogen solution containing human umbilical vein endothelial cells (HUVECs) and growth-arrested human dermal fibroblasts (HDFs) were added into the tissue chamber with thrombin. To prepare the cells for seeding, HDFs or iCasp-9 HDFs were growth-arrested with 10 μg/mL mitomycin in FGM-2 for 2.5 hours and thoroughly washed 5 times in FBM. Both HUVECs and HDFs were lifted from culture plates using TrypLE Express (Gibco), centrifuged at 200 g for 4 minutes, and resuspended to a concentration of 20 million cells/mL in EGM-2. A solution of HUVECs (3 million cells/mL), HDFs or iCasp-9 HDFs (0, 1 million, 3 million, or 6 million cells/mL), fibrinogen (2.5 mg/mL), thrombin (1 U/mL) in EGM-2 was prepared for the bulk hydrogel region of each device. After the addition of thrombin, the solution was quickly injected into the tissue chamber, and the devices were repeatedly rotated while the solution crosslinked. Appropriate media was added to each well of the device, and the devices were placed in the incubator (37° C., 5% CO2). After 15 minutes, the needles were carefully removed from the devices to create 300 μm hollow channels between the wells. Each channel of the device was seeded with additional HUVECs at 2 million cells/ml for at least 5 minutes on each side (top and bottom) in the incubator. Each device received 200 μl of appropriate media daily and cultured on the rocker inside the incubator. Once the fibrinogen polymerized into fibrin, the needles were removed to create two hollow, microfluidic channels. These channels were then seeded with additional HUVECs to line the walls in a monolayer.
Vessel networks were analyzed by fixing all devices with 4% PFA for 30 minutes on a rocker and washing with PBS overnight at 4° C. The devices were then blocked in 3% BSA overnight at 4° C. Lectin (UEA DyLight 649, Vector Labs) was diluted in the blocking solution at 1:100 dilution and added to the devices for another 4° C. overnight incubation. Devices were then washed overnight with PBS at 4° C. and kept in PBS with 0.02% (w/v) sodium azide at 4° C. until imaging. Before imaging, a solution of 500 kDa fluorescein isothiocyanate (FITC)- or tetramethylrhodamine isothiocyanate (TRITC)-conjugated dextran (0.15 mg/ml) was added to one of the microfluidic channels to generate gravity-driven hydrostatic pressure between the two channels of the device. All device images were then captured by a Leica SP8 confocal microscope (Leica, Wetzlar, Germany) using either a Leica 10×/0.30NA W U—V-I WD-3.60 Water or 25×/0.95NA W VISIR WD-2.50 Water objective and Leica LAS X imaging software. […]

iCasp9-GFP J2s = assay: fibroblast deletion from 3D spheroid-laden hydrogels; assay type: cell-based
Text: Previous work identified that phenotypic stability and longevity of primary hepatocytes cultured as 3D microtissues were transiently supported by pre-aggregation to increase homotypic cell-cell interactions, and were further enhanced upon inclusion of J2 fibroblasts (C. Y. Li et al. (2014) Tissue Eng. Part A 20, 2200). Thus, iCasp9-GFP J2 fibroblasts were incorporated into these 3D hepatic ensembles, which were fabricated by plating primary human hepatocytes and fibroblasts in microwells in order to facilitate physical cell-cell contacts, as previously described (K. Stevens et al. (2013) Nat. Commun. 4, 1847; K. R. Stevens et al. (2017) Sci. Transl. Med. 9, eaaah5505). […] Hepatic spheroids (about 150 hepatocytes per spheroid, ˜100 μm diameter) were imaged and analyzed to quantify the extent of spheroid compaction. […] Resulting morphologies were traced and measured for circularity. […]
To probe the dependence of hepatocyte phenotypic stability on fibroblast co-culture in 3D, fibroblasts were deleted from spheroid-laden hydrogel cultures using CAMEO after 1 day of hepatocyte-fibroblast co-culture. Fibroblasts were robustly removed from 3D co-cultures as described in the above Examples, and detected by immunofluorescence imaging (FIG. 3I). […]

CC[C@H](C(=O)N1CCCC[C@H]1C(=O)O[C@H](CCc1ccc(OC)c(OC)c1)c1cccc(OCC(=O)NCC(CNC(=O)COc2cccc([C@@H](CCc3ccc(OC)c(OC)c3)OC(=O)[C@@H]3CCCCN3C(=O)[C@@H](CC)c3cc(OC)c(OC)c(OC)c3)c2)CN(C)C)c1)c1cc(OC)c(OC)c(OC)c1 [CID, AP20187]
acute effects on HUVECs / noticeable deterioration of the vascular structure (HUVECs; 10 nM CID after 7 days of co-culture): not observed
dextran transport of endothelial network at day 7 (HUVECs; 50 nM CID at day 0): none of these structures could transport dextran
perfusion of endothelial network at day 7 (HUVECs; 50 nM CID at day 1): little to no perfusion
endothelial network at day 7 (HUVECs; 50 nM CID at day 3 or day 5): highly interconnected and perfusable endothelial networks
average diameter of the perfused vessels versus control (HUVECs; all conditions except day 0 deletion): comparable
iCasp9-GFP staining (iCasp9-GFP J2s; 50 nM CID at day 1, imaged starting at day 2): negligible
deletion of iCasp9-GFP J2s throughout the hydrogel (iCasp9-GFP J2s; spheroid-laden hydrogel cultures, data not shown): robust and specific deletion
